Entries after “also recorded” stand apart in the source; their conditions may differ.
Tests used:
[1] = test system: CDC37–BRAF interaction; test: Co-IP of CDC37-FLAG with BRAF-V5 in HEK293; type: cell-based, human (HEK293); conditions: HEK293, 25 μM braftide, bortezomib pretreatment
Experimental: HEK293 cells were seeded at 1(10)^6 cells per well for a 6-well plate or 5(10)^6 for 10 cm dishes and incubated until 40% to 60% confluency. Transfection was carried out using a 1:3 DNA:PEI-MAX ratio in OPTI-MEM and allowed 48 h for protein expression. For peptide assays, 48 h post-transfection, cells were treated with TAT–braftide carried in OPTI-MEM at indicated concentrations. Cells were harvested in cold PBS. Harvested cells were lysed in 4% SDS or modified radioimmunoprecipitation assay (RIPA) for co-IP experiments. Quantification of total protein by the bicinchoninic acid assay was carried out according to the manufacturer's protocols (Pierce; catalog no.: 23225).
Transfected HEK293 cells were treated with the indicated treatments and harvested in cold PBS. […] Samples were analyzed via immunoblot.
Western blot band densities were quantified with ImageJ software (National Institutes of Health) and normalized to the indicated loading control. Statistical significance was determined through one-/two-way ANOVA, where indicated, followed by Tukey's honest significant difference post hoc test with corresponding p values (∗p < 0.05, ∗∗p < 0.002, ∗∗∗p < 0.0002, and ∗∗∗∗p < 0.0001). […]

[2] = test system: CRAF–CDC37 interaction; test: NanoBiT luminescence CDC37–RAF interaction reporter assay, CRAF^SmBiT–CDC37^LgBiT; type: cell-based, human (HEK293); conditions: HEK293, 25 μM braftide, 4 h, 1 μM bortezomib pretreatment 5 h, 10 μM furimazine, 470 to 480 nm
From the text: NanoBiT cytomegalovirus MCS BiBiT vector, which contains a BRAF N terminal fused with LgBiT and CRAF N terminal fused with SmBiT, was purchased from Promega. CDC37 LgBiT and CRAF SmBiT was generated using the standard Gibson Assembly (NEB HiFi Assembly) using NanoBiT BiBiT as the vector and following primers: 5′ […] 3′, 5′ […] 3′, and CDC37 LgBiT and BRAF SmBiT was generated using the standard Gibson Assembly using NanoBiT BiBiT as the vector and following primers: 5′ […] 3′, 5′ […] 3′. Primers were designed to introduce H20A, N22A, I23A triple mutation within the CDC37 FLAG tag and for NanoBiT construct CDC37(HNI/A) LgBit and BRAF SmBiT. Primers were designed to introduce the desired substitutions. The forward primer sequence was 5′ gccgcc[…] […]
Twenty-four hours post-transfection, cells were trypsinized, pelleted, resuspended in OptiMEM + 4% fetal bovine serum, and reseeded onto a 96-well plate at 5(10)^4 cells per well and then incubated at 37 °C overnight. […] After treatment, 10 μM furimazine substrate was added to each well, and luminescence readings were taken at 470 to 480 nm using a CLARIOstar plate reader. Statistical significance was determined through a paired t test where indicated, followed by Tukey's honest significant difference post hoc test with corresponding p values (∗p < 0.05, ∗∗p < 0.01, and ∗∗∗p < 0.001). […]

[3] = test system: HCT116 cells; test: Annexin V apoptosis assay, HCT116; type: cell-based; conditions: for apoptotic cell death, braftide + 17-AAG combination versus 17-AAG monotherapy: HCT116, Annexin V, n=3, Fig. S12, B and C
Experimental: HEK293 cells and HCT116 cells were treated with either control or braftide at the indicated concentrations for 4 h. After treatment, both the floating and adherent cell populations were collected and adjusted with PBS (final concentration: 1 × 10^5 cells/ml). The cells were then mixed with the Annexin V (Cytex; FCCH100108) reagent in a 5:1 ratio (100 μl of cells mixed with 20 μl of Annexin V reagent) and allowed to stain in the dark, at room temperature for 15 min. The cells were then analyzed on a Guava Muse Cell Analyzer (Millipore).

[4] = test system: HCT116 proteome; test: Global proteomic identification of braftide-regulated proteins (LC–MS/MS) in HCT116; type: cell-based, human; conditions: HCT116, 10 μM braftide, 1 h
Experimental: HCT116 cells were treated in the absence and presence of 10 μM TAT–braftide, 1 h, 37 °C. Cell pellets were harvested in PBS and cryopreserved. Samples were sent to be lysed and identified through MS in three biological replicates (LC–MS/MS; The Wistar Institute). Data were processed through the previously reported GO analysis via the Panther database ([42]) and plotted on Origin (OriginLab Corporation). For the volcano plot, the cutoff for the presented data is p = 0.01 (∗∗), q value <0.05 (Student's t test value adjusted for multiple comparisons using the Benjamini–Hochberg false discovery rate correction) and detected in at least two or more replicates. A total of 5405 proteins were identified, emphasizing a twofold change in NeonGreen and in red. Source data are available in the supporting information files.

[5] = test system: HCT116 cells; test: WST-1 cell viability assay, HCT116; type: cell-based; conditions: HCT116, WST-1, 24 h
Experimental: HCT116 and WM3629 cells were seeded onto polylysine-coated, clear-bottomed, 96-well plates at 15(10)^3 cells per well and allowed to incubate for 24 h. Cells were treated with braftide and 17-AAG mixtures at indicated concentrations for 24 h (37 °C). The WST-1 cell viability assay was carried out according to the manufacturer's protocols (Roche; 11644807001) for 4 h, and absorbance readings were taken at 450 nM in a CLARIOstar plate reader. For the dose–response curves of braftide and 17-AAG, the data were fit to the 4-parameter logistic equation (dose–response fitting equation) in GraphPad Prism (Dotmatics): y=A1+(A2−A1)÷(1+10^(LOGx0−x)p)
Error bars are indicative of the SEM of each point.

[6] = test system: MAPK proteins (BRAF, CRAF, MEK, pMEK, ERK, pERK); conditions: HCT116, braftide alone; cited from earlier work
Experimental: HCT116 cells were treated with 17-AAG alone or in combination with braftide (Fig. 5, C and D). HSP90 monotherapy (17-AAG) depleted CRAF kinase level at a concentration of 2 μM (Fig. 5C), whereas braftide monotherapy ([23]) depleted RAF kinase levels at a concentration of 10 μM. To investigate potential synergy, we assessed combinatorial treatments in HCT116 cells, using a fixed concentration of 500 nM of the primary drug (braftide) with increasing concentrations (0 to 1 μM) of the secondary drug (17-AAG) (Fig. 5D).

Question: With “GRKKRRQRRRPQ-miniPEG-TRHVNILLFM [Braftide]” as the substance, how does the “CDC37–BRAF complex” value [1] read?
Answer: reduced the CDC37–client BRAF–CRAF complex

Question: And the “NanoBiT luminescence, CRAF^SmBiT–CDC37^LgBiT” value [2]?
Answer: reduction in luminescence, reflecting a decrease in the CDC37–RAF interaction

Question: And the “apoptosis (Annexin V), HCT116” value ([3]; 0, 5, 10, 25, 50, 75, and 100 μM braftide, 4 h, n = 3, listed as braftide)?
Answer: triggered dose-dependent apoptosis; also recorded: HCT116 cells showed higher sensitivity to braftide compared with HEK293

Question: And the “apoptotic cell death, braftide + 17-AAG combination versus 17-AAG monotherapy” value [3]?
Answer: synergizes with 17-AAG in HCT116 cells to trigger cell death at lower treatment concentrations

Question: What about the “apoptotic cell death, braftide + 17-AAG combination versus 17-AAG monotherapy” value ([3]; listed as braftide) of the same substance?
Answer: significant increase in apoptotic cell death with the combination therapy compared with monotherapy

Question: And the “FoldChange Treat/NoTreat, COA3” value ([4]; protein COA3 (Q9Y2R0), q-value 1.02E-05, LFQ, missing values imputed)?
Answer: 76.35

Question: What about the “FoldChange Treat/NoTreat, HPX” value ([4]; protein HPX (P02790), q-value 0.000814707, LFQ) of the same substance?
Answer: 99.13

Question: What about the “FoldChange Treat/NoTreat, PDK2” value ([4]; protein PDK2 (Q15119), q-value 1.74E-05, LFQ, missing values imputed) of the same substance?
Answer: 40.24

Question: What about the “FoldChange Treat/NoTreat, RNF169” value ([4]; protein RNF169 (Q8NCN4), q-value 4.15E-05, LFQ, missing values imputed) of the same substance?
Answer: 48.52

Question: And the “FoldChange Treat/NoTreat, TOMM6” value ([4]; protein TOMM6 (Q96B49), q-value 1.36E-06, LFQ, missing values imputed)?
Answer: 129.15

Question: And the “synergy of braftide and 17-AAG, HCT116” value [5]?
Answer: synergy between braftide and 17-AAG

Question: What about the “concentration at which RAF kinase levels are depleted, braftide monotherapy” value [6] of the same substance?
Answer: 10 µM

From publication PMC12830207, “Targeting the protein–protein interaction between the CDC37 cochaperone and client kinases by an allosteric RAF dimer breaker” (The Journal of Biological Chemistry, 2025)
